Tests used:
Format in all cases: in vivo
[1] = system: Pepper plants (Capsicum frutescens L., CPSFR); assay: Crop injury after shielded spray around transplanted pepper plants (Example 3, Table 7)
Description: In a third set of trials pepper plants (Capsicum frutescens L., CPSFR) were manually transplanted at a growth stage of BBCH 13 in a field and grown until they reached BBCH growth stage of 14 or roughly 10 cm average crop height.
Application was made using a compressed air sprayer and a handheld 1 nozzle spray lance. The nozzle was shielded by a spray shield to prevent unintended spray drift during application. The application was made at damp soil conditions and calm wind around each single pepper plant. The crop plants were shielded from spray drift during application and spray slurry reached only the soil and weed cover surrounding the pepper plants.
(§1) […] The crop injury was rated were visually on a percentage scale in relation to the untreated control (100%=all plants dead; 50%=green plant biomass reduced by 50%, and 0%=no discernible difference=like control plot).

[2] = system: Soybeans (GLXMA); assay: Crop injury after spray with crop rows covered by rain gutters, soybeans (Example 2, Table 6); conditions: MSO + AMS
Description: In a second set of trials Soybeans (GLXMA) were planted in a standard planting system with 30 in row spacing and grown until they reached a BBCH growth stage of 11-12 or roughly 12 cm average height.
Application was made using a CO2 pressurized backpack sprayer and a handheld 6 nozzle boom, operating at 2.5 bar. The application was made at damp soil conditions and a windspeed of 0-15 km/h. The crop rows were covered during the actual spray application using upside down metal rain gutters (10 cm×10 cm depth×width) covering the crop and the soil below of about 5 cm on either side from the crop row center. All treatments included 1.5 L of a methylated seed oil (MSO) and 2 Kg/ha Ammonium sulfate (AMS) salt source and were mixed into 1 L fraction of an equivalent to 200 L/ha spray solution.
as §1

[3] = system: Soybeans (GLXMA); assay: Crop injury after hooded band spot-spray between crop rows, soybeans (Example 1, Table 5); conditions: 1440 g a.i./ha, MSO + AMS
Description: Sunflower (HELAN), Corn (ZEAMD) and Soybeans (GLXMA) were planted in a standard planting system with 30 in row spacing and grown until they reached a BBCH growth stage of 16-18; 12-13 and 14, respectively.
Application was made using a CO2 pressurized backpack sprayer and a handheld two nozzle boom, operating at 2.75 bar. Each of the nozzles (TeeJet Extended Air Induction nozzle 0015) was equipped with a plastic hood covering a 38 cm band left and right of each crop row and preventing unintended spray drift outside the band. The spray solution covered a band of roughly 38 cm on either side of the crop row with an average distance 8 cm to the row center and 2-10 cm distance between soil surface and lower end of the spray shield. The application was made at damp soil conditions and a windspeed of 0-10 km/h. All treatments included 1.5 L of an methylated seed oil (MSO) and 2 Kg/ha Ammonium sulfate (AMS) salt source and were mixed into 1 L fraction of an equivalent to 187 L/ha spray solution.
The crop injury assessments were conducted as visual assessments at 15, 28 and 45 days after application (DAA) in case of Sunflower and soybeans and at 14 and 27 DAA in case of com. Also in case of Table 5 assessments were done in soybeans at 15, 25 and 44 DAA. The crop injury was rated were visually on a percentage scale in relation to the untreated control (100%=all plants dead; 50% =green plant biomass reduced by 50%, and 0%=no discernible difference=like control plot).

Measured: Crop injury [% untreated]

C=CC1(C(=O)NC2COC(C(=O)OC)C2)CC(c2cc(F)cc(F)c2)=NO1 (mixture of isomers) [A 1.68]
0 % untreated: [1]; 100 g a.i./ha, 5 DAA | [1]; 100 g a.i./ha, 7 DAA | [1]; 100 g a.i./ha, 14 DAA | [1]; 150 g a.i./ha, 5 DAA | [1]; 150 g a.i./ha, 7 DAA | [1]; 150 g a.i./ha, 14 DAA | [2]; 100 g a.i./ha, 7 DAA | [2]; 100 g a.i./ha, 15 DAA | [2]; 100 g a.i./ha, 28 DAA | [2]; 100 g a.i./ha, 45 DAA | [2]; 200 g a.i./ha, 7 DAA | [2]; 200 g a.i./ha, 15 DAA | [2]; 200 g a.i./ha, 28 DAA | [2]; 200 g a.i./ha, 45 DAA

O=C(O)CNCP(=O)(O)O [Glyphosate, glyphosate, reference compound]
0 % untreated: [2]; 1440 g a.i./ha, 7 DAA | [2]; 1440 g a.i./ha, 15 DAA | [2]; 1440 g a.i./ha, 28 DAA | [2]; 1440 g a.i./ha, 45 DAA | [3]; 15 DAA | [3]; 25 DAA | [3]; 44 DAA
